pIC50: −log10 of the molar value. Activity calls are given as the source filed them. No cut-off for these calls is given here. *1 amine or outer side, *2 acyl side, *3 side chain or, on linkers, in order; H or OH if unused. Where a SMILES comes first, the peptide text is derived from it. Bridges are numbered along the chain shown (N, C = ends). [ ]: non-standard residue; d: D form. Phe(3R-OH) = O=C([C@@H](N[*:1])[C@H](O[*:3])c1ccccc1)[*:2]; NMeTrp(4-OMe) = CN[C@@H](Cc1c[nH]c2cccc(OC)c12)C(=O)O; NMeT = CN[C@H](C(=O)O)[C@@H](C)O; NMeL = CN[C@@H](CC(C)C)C(=O)O; NMeV = CN[C@H](C(=O)O)C(C)C
Tests used:
HCT-116 [1] = assay: Downregulation of MCM4 protein expression in human HCT116 cells at 5 to 20 uM after 24 hrs by Western blot analysis; format: functional, cell-based
HCT-116 [2] = assay: Downregulation of BMP4 gene expression in human HCT116 cells assessed as fold change at 15 uM incubated for 24 hrs by cDNA microarray analysis relative to control; format: functional
HCT-116 [3] = assay: Modulation of Skp2-p27 Axis in human HCT116 cells assessed as upregulation of p27 expression after 24 hrs by Western blot analysis; format: functional, cell-based
HCT-116 [4] = assay: Induction of cell cycle arrest in human HCT116 cells assessed as accumulation at G2/M phase at 10 uM incubated for 24 hrs by propidium iodide staining based flow cytometry (reference value: 15.7%); format: functional
HCT-116 [5] = assay: Induction of cell cycle arrest in human HCT116 cells assessed as accumulation at G0/G1 phase at 10 uM incubated for 18 hrs by propidium iodide staining based flow cytometry (reference value: 43.3%); format: functional
HCT-116 [6] = assay: Downregulation of MCM4 gene expression in human HCT116 cells assessed as fold change at 15 uM incubated for 24 hrs by cDNA microarray analysis relative to control; format: functional
Mus musculus [7] = assay: In vivo modulation of Skp2-p27 axis in tumor of BALB/c nude mouse xenografted with human HCT116 cells assessed as downregulation of Skp2 level at 5 to 10 m/kg, ip administered thrice a week for 3.5 weeks by Western blot analysis; format: functional, organism-based
HCT-116 [8] = assay: Induction of cell cycle arrest in human HCT116 cells assessed as accumulation at S phase at 20 uM incubated for 24 hrs by propidium iodide staining based flow cytometry (reference value: 21.2%); format: functional
HCT-116 [9] = assay: Downregulation of HIST1H2BM gene expression in human HCT116 cells assessed as fold change at 15 uM incubated for 24 hrs by cDNA microarray analysis relative to control; format: functional
[10] = Toxicity in BALB/c nude mouse assessed as changes in body weight at 5 to 10 mg/kg, ip administered thrice a week for 3.5 weeks; format: organism-based; conditions: in vivo, 588 h
HCT-116 [11] = assay: Induction of cell cycle arrest in human HCT116 cells assessed as accumulation at G0/G1 phase at 10 uM incubated for 24 hrs by propidium iodide staining based flow cytometry (reference value: 54.7%); format: functional
HCT-116 [12] = assay: Decrease in cell cycle associated protein expression in human HCT116 cells assessed as reduction in cyclin D1 expression at 5 to 20 uM after 24 hrs by Western blot analysis; format: functional, cell-based
HCT-116 [13] = assay: Decrease in cell cycle associated protein expression in human HCT116 cells assessed as reduction in CDK2 expression at 5 to 20 uM after 24 hrs by Western blot analysis; format: functional, cell-based
HCT-116 [14] = assay: Antiproliferative activity against human HCT116 cells after 72 hrs by sulforhodamine B assay; format: functional, cell-based
HCT-116 [15] = assay: Induction of apoptosis in human HCT116 cells assessed as reduction in uncleaved full length caspase 8 level after 24 hrs by Western blot analysis; format: functional, cell-based
HCT-116 [16] = assay: Induction of cell cycle arrest in human HCT116 cells assessed as accumulation at G2/M phase at 5 uM incubated for 24 hrs by propidium iodide staining based flow cytometry (reference value: 15.7%); format: functional
HCT-116 [17] = assay: Induction of cell cycle arrest in human HCT116 cells assessed as accumulation at sub-G1 phase at 20 uM incubated for 24 hrs by propidium iodide staining based flow cytometry (reference value: 4.8%); format: functional
HCT-116 [18] = assay: Induction of cell cycle arrest in human HCT116 cells assessed as accumulation at G0/G1 phase incubated for 18 hrs by propidium iodide staining based flow cytometry; format: functional
HCT-116 [19] = assay: Decrease in cell cycle associated protein expression in human HCT116 cells assessed as reduction in cyclin E expression at 5 to 20 uM after 24 hrs by Western blot analysis; format: functional, cell-based
HCT-116 [20] = assay: Induction of cell cycle arrest in human HCT116 cells assessed as accumulation at G2/M phase at 5 uM incubated for 18 hrs by propidium iodide staining based flow cytometry (reference value: 25.1%); format: functional
HCT-116 [21] = assay: Induction of cell cycle arrest in human HCT116 cells assessed as accumulation at G0/G1 phase at 20 uM incubated for 24 hrs by propidium iodide staining based flow cytometry (reference value: 54.7%); format: functional
Mus musculus [22] = assay: In vivo modulation of Skp2-p27 axis in tumor of BALB/c nude mouse xenografted with human HCT116 cells assessed as upregulation of p27 level at 5 to 10 m/kg, ip administered thrice a week for 3.5 weeks by Western blot analysis; format: functional, organism-based
HCT-116 [23] = assay: Decrease in cell cycle associated protein expression in human HCT116 cells assessed as reduction in CDK4 expression at 5 to 20 uM after 24 hrs by Western blot analysis; format: functional, cell-based
HCT-116 [24] = assay: Induction of cell cycle arrest in human HCT116 cells assessed as accumulation at G0/G1 phase at 5 uM incubated for 24 hrs by propidium iodide staining based flow cytometry (reference value: 54.7%); format: functional
HCT-116 [25] = assay: Induction of apoptosis in human HCT116 cells assessed as reduction in survivin level at 5 to 20 uM after 24 hrs by Western blot analysis; format: functional, cell-based
HCT-116 [26] = assay: Downregulation of SCARA3 gene expression in human HCT116 cells assessed as fold change at 15 uM incubated for 24 hrs by cDNA microarray analysis relative to control; format: functional
HCT-116 [27] = assay: Induction of cell cycle arrest in human HCT116 cells assessed as accumulation at S phase at 20 uM incubated for 18 hrs by propidium iodide staining based flow cytometry (reference value: 26.8%); format: functional
HCT-116 [28] = assay: Downregulation of KITLG gene expression in human HCT116 cells assessed as fold change at 15 uM incubated for 24 hrs by cDNA microarray analysis relative to control; format: functional
SK-HEP1 = assay: Antiproliferative activity against human SKHEP1 cells after 72 hrs by sulforhodamine B assay; format: functional, cell-based; conditions: SK-HEP1, 72 h
HCT-116 [29] = assay: Induction of apoptosis in human HCT116 cells assessed as increase in cleaved caspase 7 level after 24 hrs by Western blot analysis; format: functional, cell-based
HCT-116 [30] = assay: Induction of cell cycle arrest in human HCT116 cells assessed as accumulation at S phase at 5 uM incubated for 24 hrs by propidium iodide staining based flow cytometry (reference value: 21.2%); format: functional
HCT-116 [31] = assay: Antitumor activity against human HCT116 cells xenografted in BALB/c nude mouse assessed as tumor weight at 5 mg/kg, ip administered thrice a week for 3.5 weeks measured on last day (reference value: 100%); format: functional
Mus musculus [32] = assay: In vivo modulation of MCM4 in tumor of BALB/c nude mouse xenografted with human HCT116 cells assessed as downregulation of MCM4 mRNA level at 5 to 10 m/kg, ip administered thrice a week for 3.5 weeks by RT-PCR method; format: functional, organism-based
SNU-638 = assay: Antiproliferative activity against human SNU638 cells after 72 hrs by sulforhodamine B assay; format: functional, cell-based; conditions: SNU-638, 72 h
HCT-116 [33] = assay: Downregulation of cyclin E2 mRNA expression in human HCT116 cells after 12 hrs by RT-PCR method; format: functional, cell-based
HCT-116 [34] = assay: Downregulation of MCM4 mRNA expression in human HCT116 cells after 12 hrs by RT-PCR method; format: functional, cell-based

In the case of `CN[C@H](C(=O)N[C@H](C(=O)N[C@@H]1C(=O)N(C)[C@@H]([C@@H](C)O)C(=O)N[C@@H](C(C)C)C(=O)N(C)[C@@H](CC(C)C)C(=O)N[C@@H](C(C)C)C(=O)N(C)[C@@H](C(C)C)C(=O)N(C)[C@@H](Cc2c[nH]c3cccc(OC)c23)C(=O)N[C@@H](C(C)C)C(=O)N[C@@H]([C@H](O)c2ccccc2)C(=O)N[C@@H](C(C)C)C(=O)O[C@@H]1C)C(C)C)C(C)C` (H-[NMeV]VT[NMeT]V[NMeL]V[NMeV][NMeTrp(4-OMe)]V[Phe(3R-OH)]V; ester 3-C), the inhibition (HCT-116 [1]) was “Active”, the “fold change (FC)” value (HCT-116 [2]) was 4.773 and the Activity (HCT-116 [3]) was “Dose-dependent effect”. The Activity (HCT-116 [4]) was 16.1%, the Activity (HCT-116 [5]) was 51.4% and the “fold change (FC)” value (HCT-116 [6]) was 6.074. For the same compound, the inhibition (Mus musculus [7]) was “Active”, the Activity (HCT-116 [8]) was 24.1% and the “fold change (FC)” value (HCT-116 [9]) was 7.527. For the same compound, the Activity [10] was “Non-Toxic”, the Activity (HCT-116 [11]) was 62.7% and the inhibition (HCT-116 [12]) was “Active”. For the same compound, the inhibition (HCT-116 [13]) was “Active”, the inhibition (HCT-116 [14]) was “Dose-dependent effect” and the pIC50 (HCT-116 [14]; HCT-116, 72 h) was 5.12. The Activity (HCT-116 [15]) was “Dose-dependent effect”, the Activity (HCT-116 [16]) was 12.5% and the Activity (HCT-116 [17]) was 31.4%. For the same compound, the Activity (HCT-116 [18]) was “Dose-dependent effect”, the inhibition (HCT-116 [19]) was “Active” and the Activity (HCT-116 [20]) was 22.3%. For the same compound, the Activity (HCT-116 [21]) was 30.9%, the Activity (Mus musculus [22]) was “Active” and the inhibition (HCT-116 [23]) was “Active”. For the same compound, the Activity (HCT-116 [24]) was 60.9%, the Activity (HCT-116 [25]) was “Active” and the “fold change (FC)” value (HCT-116 [26]) was 4.372. The Activity (HCT-116 [27]) was 16%, the “fold change (FC)” value (HCT-116 [28]) was 4.177 and the pIC50 (SK-HEP1) was 5.09. The Activity (HCT-116 [29]) was “Dose-dependent effect”, the Activity (HCT-116 [30]) was 5.6% and the Activity (HCT-116 [31]) was 70.3%. For the same compound, the inhibition (Mus musculus [32]) was “Active”, the pIC50 (SNU-638) was 5.03 and the inhibition (HCT-116 [33]) was “Dose-dependent effect”. The inhibition (HCT-116 [34]) was “Dose-dependent effect”.

Source: ChEMBL document CHEMBL4342450, “Antitumor Activity of Ohmyungsamycin A through the Regulation of the Skp2-p27 Axis and MCM4 in Human Colorectal Cancer Cells” (J Nat Prod, 2020)
